Source: patent US20030199526A1, “Pyrimidine-based compounds useful as GSK-3 inhibitors” (priority 2001, published 2003)
pKi: −log10 of the molar value.

Target: T1, GSK-3β (AA 1-420) (Homo sapiens, UniProt P49841)
T1 construct: GSK-3β (AA 1-420)
Experiment: Ki determination for the inhibition of GSK-3 (coupled enzyme system)
Assay type: biochemical
Conditions: 20 μM ATP, 300 μM peptide, 20 nM GSK-3β, 30° C.
Experimental: Compounds were screened for their ability to inhibit GSK-3β (AA 1-420) activity using a standard coupled enzyme system [Fox et al. Protein Sci. 7, 2249 (1998)]. Reactions were carried out in a solution containing 100 mM HEPES (pH 7.5), 10 mM MgCl2, 25 mM NaCl, 300 μM NADH, 1 mM DTT and 1.5% DMSO. Final substrate concentrations in the assay were 20 μM ATP (Sigma Chemicals, St Louis, Mo.) and 300 μM peptide (American Peptide, Sunnyvale, Calif.). Reactions were carried out at 30° C. and 20 nM GSK-3β. Final concentrations of the components of the coupled enzyme system were 2.5 mM phosphoenolpyruvate, 300 μM NADH, 30 μg/ml pyruvate kinase and 10 μg/ml lactate dehydrogenase.
An assay stock buffer solution was prepared containing all of the reagents listed above with the exception of ATP and the test compound of interest. The assay stock buffer solution (175 μl) was incubated in a 96 well plate with 5 μl of the test compound of interest at final concentrations spanning 0.002 μM to 30 μM at 30° C. for 10 min. Typically, a 12 point titration was conducted by preparing serial dilutions (from 10 mM compound stocks) with DMSO of the test compounds in daughter plates. The reaction was initiated by the addition of 20 μl of ATP (final concentration 20 μM). Rates of reaction were obtained using a Molecular Devices Spectramax plate reader (Sunnyvale, Calif.) over 10 min at 30° C. The Ki values were determined from the rate data as a function of inhibitor concentration.

T1 sequence (P49841 whole entry, species assumed, the tested form may be a part): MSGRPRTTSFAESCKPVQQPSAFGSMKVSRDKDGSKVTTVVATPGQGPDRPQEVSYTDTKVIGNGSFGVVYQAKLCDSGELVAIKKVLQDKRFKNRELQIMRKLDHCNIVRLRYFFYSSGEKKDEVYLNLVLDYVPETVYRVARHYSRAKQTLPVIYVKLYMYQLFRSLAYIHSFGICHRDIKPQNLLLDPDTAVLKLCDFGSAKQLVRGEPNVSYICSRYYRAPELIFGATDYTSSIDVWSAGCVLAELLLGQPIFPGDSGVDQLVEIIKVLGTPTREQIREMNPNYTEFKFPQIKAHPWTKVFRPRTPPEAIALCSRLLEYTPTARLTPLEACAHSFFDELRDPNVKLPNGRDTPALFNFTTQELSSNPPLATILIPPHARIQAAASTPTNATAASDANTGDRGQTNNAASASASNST

`N#Cc1ccc(NCCNc2nc(-c3cc(Cl)ccc3-c3ccccc3)nc3ccccc23)nc1` [Compound I-195, 6-{2-[2-(4-Chloro-biphenyl-2-yl)-quinazolin-4-ylamino]-ethylamino}-nicotinonitrile] was tested, and the pKi was greater than 7.00.
In the case of `N#Cc1ccc(NCCNc2nc(-c3ccccc3F)nc3ccccc23)nc1` [Compound I-190, 6-{2-[2-(2-Fluoro-phenyl)-quinazolin-4-ylamino]-ethylamino}-nicotinonitrile], the pKi was greater than 7.00.
Compound `N#Cc1ccc(NCCNc2nc(-c3ccc(F)cc3F)nc3ccccc23)nc1` [Compound I-191, 6-{2-[2-(2,4-Difluoro-phenyl)-quinazolin-4-ylamino]-ethylamino}-nicotinonitrile] has a pKi greater than 7.00.
Work on `Cc1nc(-c2ccccc2Cl)nc(NCCNc2ccc(C#N)cn2)c1C` [Compound I-200] yielded a pKi greater than 7.00.
`N#Cc1ccc(-c2nc(NCCNc3ccc(C#N)cn3)c3ccccc3n2)cc1` [Compound I-19, 6-{2-[2-(4-Cyano-phenyl)-quinazolin-4-ylamino]-ethylamino}-nicotinonitrile] showed a pKi greater than 7.00.
`N#Cc1ccc(NCCNc2nc(-c3ccc(Cl)cc3Cl)nc3ccccc23)cc1` [Compound I-62, 4-{2-[2-(2,4-Dichloro-phenyl)-quinazolin-4-ylamino]-ethylamino}-benzonitrile] was tested, and the pKi was greater than 7.00.
`N#Cc1ccc(NCCNc2nc(-c3ccccc3Cl)nc3ccccc23)nc1` [Compound I-11, 6-{2-[2-(2-Chloro-phenyl)-quinazolin-4-ylamino]-ethylamino}-nicotinonitrile] gave a pKi greater than 7.00.
For `Cc1nc(-c2ccccc2C(F)(F)F)nc(NCCNc2ccc(C#N)cn2)c1C` [Compound I-197, 6-{2-[5,6-Dimethyl-2-(2-trifluoromethyl-phenyl)-pyrimidin-4-ylamino]-ethylamino}-nicotinonitrile], the pKi was greater than 7.00.
Work on `N#Cc1ccc(NCCNc2nc(-c3ccccc3C(F)(F)F)nc3ccccc23)nc1` [Compound I-8, 6-{2-[2-(Trifluoromethyl-phenyl)-quinazolin-4-ylamino]-ethylamino}-nicotinonitrile] yielded a pKi greater than 7.00.
Work on `N#Cc1ccc(NCCNc2nc(-c3ccccc3O)nc3ccccc23)nc1` [Compound I-189, 6-{2-[2-(2-Hydroxy-phenyl)-quinazolin-4-ylamino]-ethylamino}-nicotinonitrile] yielded a pKi greater than 7.00.
For `N#Cc1ccc(NCCNc2nc(-c3ccccc3Cl)nc3cccnc23)nc1` [Compound I-118, 6-{2-[2-(2-Chloro-phenyl)-pyrido[3,2-d]pyrimidin-4-ylamino]-ethylamino}-nicotinonitrile], the pKi was greater than 7.00.
In the case of `N#Cc1ccc(NCCNc2nc(-c3ccc(Cl)cc3Cl)nc3ccccc23)nc1` [Compound I-1, 6-{2-[2-(2,4-Dichloro-phenyl)-quinazolin-4-ylamino]-ethylamino}-nicotinonitrile], the pKi was greater than 7.00.
In the case of `Cc1nc(-c2ccc(Cl)cc2Cl)nc(NCCNc2ccc(C#N)cn2)c1C` [Compound I-198, 6-{2-[2-(2,4-Dichloro-phenyl)-5,6-dimethyl-pyrimidin-4-ylamino]-ethylamino}-nicotinonitrile], the pKi was greater than 7.00.
With `COc1ccccc1-c1nc(NCCNc2ccc(C#N)cn2)c2ccccc2n1` [Compound I-188, 6-{2-[2-(2-Methoxy-phenyl)-quinazolin-4-ylamino]-ethylamino}-nicotinonitrile] the pKi was greater than 7.00.
`N#Cc1ccc(NCCNc2nc(-c3ccccc3)nc3ccccc23)nc1` [Compound I-9, 6-[2-(2-Phenyl-quinazolin-4-ylamino)-ethylamino]-nicotinonitrile] was tested, and the pKi was greater than 7.00.
In the case of `N#Cc1ccc(NCCNc2nc(-c3ccc(Cl)cc3)nc3ccccc23)nc1` [Compound I-2], the pKi was greater than 7.00.
